Experimental data taken from ChEMBL document CHEMBL5038615, “Discovery of a cinnamyl piperidine derivative as new neddylation inhibitor for gastric cancer treatment” (Eur J Med Chem, 2021).
The source made the active and inactive calls. The calls are words filed in the database; no cut-off is given here.

Columns and labels:
MGC-803 [1] = assay: Induction of apoptosis in human MGC-803 cells assessed as early apoptotic cells at 5 uM measured after 48 hrs by AnnexinV/FITC staining based flow cytometry method (reference value: 1.5%); assay type: functional
A549 = assay: Antiproliferative activity against human A549 cells assessed as inhibition of cell proliferation measured after 72 hrs by MTT assay; assay type: functional, cell-based; conditions: A549, 72 h
MGC-803 [2] = assay: Induction of apoptosis in human MGC-803 cells assessed as early apoptotic cells at 7.5 uM measured after 24 hrs by AnnexinV/FITC staining based flow cytometry method (reference value: 1.3%); assay type: functional
MGC-803 [3] = assay: Induction of apoptosis in human MGC-803 cells assessed as upregulation of Bid at 2.5 to 7.5 uM measured after 24 hrs by Western blot assay; assay type: functional, cell-based; conditions: dose 2.5-7.5 µM
HGC-27 [4] = assay: Induction of apoptosis in human HGC-27 cells assessed as necrotic cells at 3 uM measured after 24 hrs by AnnexinV/FITC staining based flow cytometry method (reference value: 1.2%); assay type: functional
MGC-803 [5] = assay: Induction of apoptosis in human MGC-803 cells assessed as reduction of mitochondrial membrane potential at 7.5 uM measured after 24 hrs by JC-1 staining based Flowcytometry assay (reference value: 3.8%); assay type: functional; set-up: scale not given: the % may be the effect or the level left
MGC-803 [6] = assay: Induction of apoptosis in human MGC-803 cells assessed as early apoptotic cells at 5 uM measured after 24 hrs by AnnexinV/FITC staining based flow cytometry method (reference value: 1.3%); assay type: functional
HGC-27 [7] = assay: Antiproliferative activity against human HGC-27 cells assessed as inhibition of cell proliferation measured after 72 hrs by MTT assay; assay type: functional, cell-based; conditions: HGC-27, 72 h
HGC-27 [8] = assay: Inhibition of cell migration in human HGC-27 cells at 5 uM measured after 48 hrs by wound healing assay based inverted microscopic analysis; assay type: functional
HGC-27 [9] = assay: Induction of apoptosis in human HGC-27 cells assessed as ROS levels at 9 uM measured after 24 hrs by DCFH-DA staining based flow cytometry assay (reference value: 6.8%); assay type: functional
MGC-803 [10] = assay: Cell cycle arrest in human MGC-803 cells assessed as accumulation of cells at G2/M phase at 7.5 uM measured after 24 hrs by Flowcytometry assay (reference value: 13.71%); assay type: functional
MGC-803 [11] = assay: Induction of apoptosis in human MGC-803 cells assessed as necrotic cells at 5 uM measured after 48 hrs by AnnexinV/FITC staining based flow cytometry method (reference value: 0.2%); assay type: functional
MGC-803 [12] = assay: Induction of apoptosis in human MGC-803 cells assessed as ROS levels at 7.5 uM measured after 24 hrs by DCFH-DA staining based flow cytometry assay (reference value: 3.3%); assay type: functional
HGC-27 [13] = assay: Induction of apoptosis in human HGC-27 cells assessed as late apoptotic cells at 6 uM measured after 24 hrs by AnnexinV/FITC staining based flow cytometry method (reference value: 2.4%); assay type: functional
HGC-27 [14] = assay: Induction of apoptosis in human HGC-27 cells assessed as late apoptotic cells at 6 uM measured after 48 hrs by AnnexinV/FITC staining based flow cytometry method (reference value: 1%); assay type: functional
MGC-803 [15] = assay: Cell cycle arrest in human MGC-803 cells assessed as accumulation of cells at G0/G1 phase at 7.5 uM measured after 24 hrs by Flowcytometry assay (reference value: 46.01%); assay type: functional
MGC-803 [16] = assay: Induction of apoptosis in human MGC-803 cells assessed as down-regulation of Keap1 expression at 2.5 to 7.5 uM measured after 24 hrs by Western blot assay; assay type: functional, cell-based; conditions: dose 2.5-7.5 µM
HGC-27 [17] = assay: Induction of apoptosis in human HGC-27 cells assessed as reduction of mitochondrial membrane potential at 3 uM measured after 24 hrs by JC-1 staining based Flowcytometry assay (reference value: 2.4%); assay type: functional; set-up: scale not given: the % may be the effect or the level left
HGC-27 [18] = assay: Induction of apoptosis in human HGC-27 cells assessed as necrotic cells at 6 uM measured after 48 hrs by AnnexinV/FITC staining based flow cytometry method (reference value: 0.1%); assay type: functional
HGC-27 [19] = assay: Induction of apoptosis in human HGC-27 cells assessed as late apoptotic cells at 3 uM measured after 24 hrs by AnnexinV/FITC staining based flow cytometry method (reference value: 2.4%); assay type: functional
MGC-803 [20] = assay: Induction of apoptosis in human MGC-803 cells assessed as necrotic cells at 7.5 uM measured after 24 hrs by AnnexinV/FITC staining based flow cytometry method (reference value: 1.9%); assay type: functional
HGC-27 [21] = assay: Inhibition of cell migration in human HGC-27 cells at 1.5 to 6 uM measured after 24 to 48 hrs by wound healing assay based inverted microscopic analysis; assay type: functional; conditions: dose 1.5-6 µM, time 24-48 hrs
MGC-803 [22] = assay: Induction of apoptosis in human MGC-803 cells assessed as up-regulation of Nrf2 expression at 2.5 to 7.5 uM measured after 24 hrs by Western blot assay; assay type: functional, cell-based; conditions: dose 2.5-7.5 µM
[23] = Toxicity in NOD-SCID mouse xenografted with human MGC-803 cells assessed as change in body weight at 50 to 100 mg/kg/day, IG measured after 21 days; assay type: organism-based; conditions: in vivo, po, 504 h, dose 50-100 mg/kg/day, time 21 day
MGC-803 [24] = assay: Cell cycle arrest in human MGC-803 cells assessed as accumulation of cells at G2/M phase at 5 uM measured after 24 hrs by Flowcytometry assay (reference value: 13.71%); assay type: functional
HGC-27 [25] = assay: Induction of apoptosis in human HGC-27 cells assessed as late apoptotic cells at 9 uM measured after 48 hrs by AnnexinV/FITC staining based flow cytometry method (reference value: 1%); assay type: functional
MCF7 = assay: Antiproliferative activity against human MCF7 cells assessed as inhibition of cell proliferation measured after 72 hrs by MTT assay; assay type: functional, cell-based; conditions: MCF7, 72 h
MGC-803 [26] = assay: Induction of apoptosis in human MGC-803 cells assessed as viable cells at 5 uM measured after 24 hrs by AnnexinV/FITC staining based flow cytometry method (reference value: 94.8%); assay type: functional; conditions: read-out: Activity
MGC-803 [27] = assay: Induction of apoptosis in human MGC-803 cells assessed as late apoptotic cells at 2.5 uM measured after 24 hrs by AnnexinV/FITC staining based flow cytometry method (reference value: 2%); assay type: functional
MGC-803 [28] = assay: Induction of apoptosis in human MGC-803 cells assessed as down-regulation of Bcl2 at 2.5 to 7.5 uM measured after 24 hrs by Western blot assay; assay type: functional, cell-based; conditions: dose 2.5-7.5 µM
HGC-27 [29] = assay: Induction of apoptosis in human HGC-27 cells assessed as upregulation of Bid at 3 to 9 uM measured after 24 hrs by Western blot assay; assay type: functional, cell-based; conditions: dose 3-9 µM
MGC-803 [30] = assay: Induction of apoptosis in human MGC-803 cells assessed as upregulation of Bak at 2.5 to 7.5 uM measured after 24 hrs by Western blot assay; assay type: functional, cell-based; conditions: dose 2.5-7.5 µM
HGC-27 [31] = assay: Induction of apoptosis in human HGC-27 cells assessed as reduction of mitochondrial membrane potential at 9 uM measured after 24 hrs by JC-1 staining based Flowcytometry assay (reference value: 2.4%); assay type: functional; set-up: scale not given: the % may be the effect or the level left
HGC-27 [32] = assay: Induction of apoptosis in human HGC-27 cells assessed as early apoptotic cells at 3 uM measured after 48 hrs by AnnexinV/FITC staining based flow cytometry method (reference value: 5.8%); assay type: functional
MGC-803 [33] = assay: Cell cycle arrest in human MGC-803 cells assessed as accumulation of cells at S phase at 2.5 uM measured after 24 hrs by Flowcytometry assay (reference value: 36.51%); assay type: functional

Compound `CCCCCc1ccc(NC(=O)C2CCN(C/C=C/c3ccccc3)CC2)cc1` has an Activity (MGC-803 [1]) of 9.8%, an IC50 (A549) of 3.88 µM and an Activity (MGC-803 [2]) of 1.7%. The Activity (MGC-803 [3]) was “Dose-Dependent Effect”, the Activity (HGC-27 [4]) was 0.4% and the Activity (MGC-803 [5]) was 70%. It also gave an Activity (MGC-803 [6]) of 0.8%, an IC50 (HGC-27 [7]) of 3.17 µM and an inhibition at 5 µM (HGC-27 [8]) of 60%. It also gave an Activity (HGC-27 [9]) of 25.7%, an Activity (MGC-803 [10]) of 25.94% and an Activity (MGC-803 [11]) of 0.8%. For the same compound, the Activity (MGC-803 [12]) was 22.2%, the Activity (HGC-27 [13]) was 51.3% and the Activity (HGC-27 [14]) was 21.2%. For the same compound, the Activity (MGC-803 [15]) was 37.06%, the Activity (MGC-803 [16]) was “Active” and the Activity (HGC-27 [17]) was 4.4%. It also gave an Activity (HGC-27 [18]) of 0.7%, an Activity (HGC-27 [19]) of 4.6% and an Activity (MGC-803 [20]) of 6.9%. The inhibition (HGC-27 [21]) was “Dose-Dependent Effect”, the Activity (MGC-803 [22]) was “Active” and the Activity [23] was “Non-Toxic”. The Activity (MGC-803 [24]) was 19.31%, the Activity (HGC-27 [25]) was 99.5% and the IC50 (MCF7) was 3.74 µM. The viability at 5 µM (MGC-803 [26]) was 80.1%, the Activity (MGC-803 [27]) was 3.6% and the Activity (MGC-803 [28]) was “Dose-Dependent Effect”. For the same compound, the Activity (HGC-27 [29]) was “Dose-Dependent Effect”, the Activity (MGC-803 [30]) was “Dose-Dependent Effect” and the Activity (HGC-27 [31]) was 58%. The Activity (HGC-27 [32]) was 6.2% and the Activity (MGC-803 [33]) was 33.01%.
